# Test results reported in publication PMC3625590, “NBM-T-L-BMX-OS01, Semisynthesized from Osthole, Is a Novel Inhibitor of Histone Deacetylase and Enhances Learning and Memory in Rats” (Evidence-based Complementary and Alternative Medicine : eCAM, 2013).
# Counter-ions that a name gives are not always drawn.
# What was measured:
# [1] = tested on: Sco-induced amnesia rats; assay: Novel object recognition, Sco-induced memory impairment; format: in vivo, Sprague-Dawley rats; details: Sco 1.5 mg/kg/d; BMX or SAHA 5 mg/kg/d i.p.; 8 h
# Description: SAHA was supplied by NatureWise Biotech and Medicals Corporation (Taipei, Taiwan). […] (St. Louis, MO, USA). The BMX and SAHA stock (100 mg/mL) was dissolved in DMSO and diluted with saline to a final concentration of 0.5 mg/mL (in 0.5% DMSO/saline). […] SD rats were randomly divided into 3 groups. For the naïve animal experiments, the BMX-injected or SAHA-injected groups were injected with BMX (5 mg/kg/d) or SAHA (5 mg/kg/d) intraperitoneally 7 d prior to behavioral experiments and during the experimentation. The control group received the 0.5% DMSO/saline injection. The injection volume was 10 μL/g of body weight. The injections were performed once per day. For the amnesia experiment, the protocol was adopted from previous studies with modifications. […] The control group received the 0.5% DMSO/saline injection. The injection volume was 10 μL/g of body weight. […] The method used was adopted from that of a previous study with modifications. During familiarization, rats were allowed to explore 2 identical objects in an open field box (90 × 70 × 60 cm) for 5 min. The criteria used for exploration were a distance less than 1.5 cm between the rat and the object or direct contact with the object. […] The time that each rat spent exploring the 2 objects during a 5 min period was recorded. […]
# [2] = tested on: Sco-induced amnesia rats; assay: Water-maze learning, Sco-induced memory impairment; format: in vivo, Sprague-Dawley rats; details: Sco 1.5 mg/kg/d; BMX or SAHA 5 mg/kg/d i.p.
# Description: SAHA was supplied by NatureWise Biotech and Medicals Corporation (Taipei, Taiwan). […] (St. Louis, MO, USA). The BMX and SAHA stock (100 mg/mL) was dissolved in DMSO and diluted with saline to a final concentration of 0.5 mg/mL (in 0.5% DMSO/saline). […] SD rats were randomly divided into 3 groups. For the naïve animal experiments, the BMX-injected or SAHA-injected groups were injected with BMX (5 mg/kg/d) or SAHA (5 mg/kg/d) intraperitoneally 7 d prior to behavioral experiments and during the experimentation. The control group received the 0.5% DMSO/saline injection. The injection volume was 10 μL/g of body weight. The injections were performed once per day. For the amnesia experiment, the protocol was adopted from previous studies with modifications. […] The control group received the 0.5% DMSO/saline injection. The injection volume was 10 μL/g of body weight. […] The method was adopted from that of a previous study with modifications. A plastic circular pool 2.0 m in diameter and 0.6 m in height was filled with water (25 ± 2°C) to a depth of 20 cm. A circular platform (8 cm in diameter) was placed at a specific location from the edge of the pool and submerged 2-3 cm below the water surface. Water was made cloudy by adding toxic-free dye. Distinctive visual cues were set on the wall. For spatial learning, animals were subjected to 3 trials per day, with one trial early in the morning, one trial at noon, and another in the late afternoon. The training procedure lasted 4 days, and a total of 12 trials were given. This procedure was adopted because spaced training is a better paradigm to facilitate memory consolidation. For these trials, the rats were positioned at different starting points spaced equally around the perimeter of the pool in random order. They had 120 s to find the hidden platform. If a rat could not find the platform, it was guided to the platform and was allowed to remain there for 20 s. The time each animal took to reach the platform was recorded as the escape latency. A probe trial of 120 s was given on day 5 to test their memory retention. The rats were placed in the pool with the platform removed, and the time they spent in each quadrant (Quadrants 1, 2, 3, and 4) was recorded. Quadrant 4 is the target quadrant. For the trained and swimming control experiments, rats in the trained group were subjected to the regular water maze learning procedure. At the end of the experiment, the rats were subjected to visible platform learning. For visible platform learning, a flag was mounted on the platform, and the platform was raised 2.5 cm above the surface of the water. In addition, the dye had not been added, so that the animals could see the location of the platform from the water. […]
compound,measurement,setting,value
"CN1[C@@H]2C[C@@H](OC(=O)[C@H](CO)c3ccccc3)C[C@H]1[C@@H]1O[C@@H]12 [Sco, Scopolamine hydrochloride]",exploratory preference for the novel object (NO),[1],showed no exploratory preference for the NO
same,escape latency in finding the hidden platform,[2],showed longer escape latency
same,"probe trial, time spent in target quadrant",[2],spent less time in the quadrant where the platform had been placed
